From patent EP0906127B1, “NOVEL DEVICES FOR TRANSDERMAL ADMINISTERING OF TRIMEGESTONE” (priority 1996, dated 1997) come the findings set out here.

The target in experiment [1] is T1, récepteurs hormonaux humains recombinant androgène (hAN) (Homo sapiens, UniProt P10275).
T1 construct: made in house; host or cells: SF9 insect cells / baculovirus
Kind of experiment: Relative binding affinity for recombinant hormone receptors (SF9 insect cell-baculovirus overexpression). The text has this: (§1) Cette affinité a été étudiée sur les récepteurs hormonaux humains recombinant de la progestérone (hPR), androgène (hAN), glucocorticoide (hGR) et estrogène (hER).

Experiment [2] is described as follows: In vivo studies of the hormonal activity profile.
Experiment [3] deals with T2, récepteurs hormonaux humains recombinant glucocorticoide (hGR) (Homo sapiens, UniProt P04150).
T2 construct: made in house; host or cells: SF9 insect cells / baculovirus
T2 sequence (P04150 1-777): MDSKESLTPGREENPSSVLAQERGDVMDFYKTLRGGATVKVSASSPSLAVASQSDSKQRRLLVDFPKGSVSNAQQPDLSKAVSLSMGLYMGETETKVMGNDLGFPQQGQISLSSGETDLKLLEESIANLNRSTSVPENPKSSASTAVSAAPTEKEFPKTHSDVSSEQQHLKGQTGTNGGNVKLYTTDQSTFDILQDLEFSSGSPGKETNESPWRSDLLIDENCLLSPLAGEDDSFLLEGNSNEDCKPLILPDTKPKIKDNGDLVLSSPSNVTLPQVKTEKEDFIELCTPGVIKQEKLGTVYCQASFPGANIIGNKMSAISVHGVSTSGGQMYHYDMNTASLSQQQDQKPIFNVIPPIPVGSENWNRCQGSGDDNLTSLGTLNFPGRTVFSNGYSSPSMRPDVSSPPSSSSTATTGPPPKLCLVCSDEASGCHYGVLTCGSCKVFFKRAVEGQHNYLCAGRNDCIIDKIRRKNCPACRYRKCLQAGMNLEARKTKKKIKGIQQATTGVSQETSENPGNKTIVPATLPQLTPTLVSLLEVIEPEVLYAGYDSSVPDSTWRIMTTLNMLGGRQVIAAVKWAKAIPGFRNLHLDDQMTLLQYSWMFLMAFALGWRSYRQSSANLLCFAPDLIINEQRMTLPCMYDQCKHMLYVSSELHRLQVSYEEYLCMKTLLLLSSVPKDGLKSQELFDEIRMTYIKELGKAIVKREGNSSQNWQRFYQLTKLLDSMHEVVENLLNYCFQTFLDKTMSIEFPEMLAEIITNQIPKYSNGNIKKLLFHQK
The experiment in a line: Relative binding affinity for recombinant hormone receptors (SF9 insect cell-baculovirus overexpression). The text has this: Cette affinité a été étudiée sur les récepteurs hormonaux humains recombinant de la progestérone (hPR), androgène (hAN), glucocorticoide (hGR) et estrogène (hER). Ces récepteurs sont obtenus par surexpression dans un système cellules d'insectes-bacullovirus SF9 selon les méthodes décrites notamment dans la demande de brevet Européenne 0 629 635. Les affinité relatives de liaison (ARL) sont les suivantes : […]

Experiment [4] has as its target T3, récepteurs hormonaux humains recombinant de la progestérone (hPR) (Homo sapiens, UniProt P06401).
T3 construct: made in house; host or cells: SF9 insect cells / baculovirus
T3 sequence (P06401 1-933): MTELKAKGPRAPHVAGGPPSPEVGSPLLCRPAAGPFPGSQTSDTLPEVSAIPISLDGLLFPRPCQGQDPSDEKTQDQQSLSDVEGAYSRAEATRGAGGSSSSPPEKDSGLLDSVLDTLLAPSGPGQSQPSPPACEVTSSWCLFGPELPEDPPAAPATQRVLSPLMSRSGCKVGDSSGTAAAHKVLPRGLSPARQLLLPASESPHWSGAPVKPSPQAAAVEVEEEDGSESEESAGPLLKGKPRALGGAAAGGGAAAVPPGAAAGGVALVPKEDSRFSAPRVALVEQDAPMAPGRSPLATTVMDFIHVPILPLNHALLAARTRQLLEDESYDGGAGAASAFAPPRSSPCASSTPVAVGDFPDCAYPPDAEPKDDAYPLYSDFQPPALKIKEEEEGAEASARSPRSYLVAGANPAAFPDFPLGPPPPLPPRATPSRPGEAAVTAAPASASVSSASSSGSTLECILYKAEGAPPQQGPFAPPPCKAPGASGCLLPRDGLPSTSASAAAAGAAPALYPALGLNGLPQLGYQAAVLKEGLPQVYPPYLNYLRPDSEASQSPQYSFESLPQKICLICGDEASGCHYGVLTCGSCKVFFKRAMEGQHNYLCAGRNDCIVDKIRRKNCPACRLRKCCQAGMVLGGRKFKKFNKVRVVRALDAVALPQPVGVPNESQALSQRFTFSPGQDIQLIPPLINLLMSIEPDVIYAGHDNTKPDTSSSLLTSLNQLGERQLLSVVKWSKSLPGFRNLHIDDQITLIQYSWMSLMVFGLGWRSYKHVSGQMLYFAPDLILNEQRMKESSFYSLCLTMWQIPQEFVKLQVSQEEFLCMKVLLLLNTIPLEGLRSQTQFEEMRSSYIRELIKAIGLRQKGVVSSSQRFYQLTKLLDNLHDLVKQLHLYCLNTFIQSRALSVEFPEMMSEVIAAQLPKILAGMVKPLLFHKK
The description is as above.
Excerpt: as §1

Experiment [5] addresses T4, récepteurs hormonaux humains recombinant estrogène (hER) (Homo sapiens, UniProt P03372).
T4 construct: made in house; host or cells: SF9 insect cells / baculovirus
T4 sequence (P03372 1-595): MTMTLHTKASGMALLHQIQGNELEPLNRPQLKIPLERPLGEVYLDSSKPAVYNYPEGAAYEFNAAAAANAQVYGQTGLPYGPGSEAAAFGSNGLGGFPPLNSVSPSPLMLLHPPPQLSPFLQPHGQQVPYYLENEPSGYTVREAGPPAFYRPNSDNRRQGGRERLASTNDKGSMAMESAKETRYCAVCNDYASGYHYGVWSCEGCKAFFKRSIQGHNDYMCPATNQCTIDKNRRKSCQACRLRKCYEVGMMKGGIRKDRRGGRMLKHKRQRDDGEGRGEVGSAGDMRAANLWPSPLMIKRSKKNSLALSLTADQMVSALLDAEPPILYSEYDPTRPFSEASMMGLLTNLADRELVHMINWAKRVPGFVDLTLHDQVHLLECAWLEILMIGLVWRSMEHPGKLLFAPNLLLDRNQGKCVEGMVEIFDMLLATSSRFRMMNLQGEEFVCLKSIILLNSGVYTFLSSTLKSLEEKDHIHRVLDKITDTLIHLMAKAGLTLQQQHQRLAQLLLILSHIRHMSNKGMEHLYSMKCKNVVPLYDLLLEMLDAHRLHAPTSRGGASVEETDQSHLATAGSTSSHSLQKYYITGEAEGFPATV
The experiment is described as above.
Excerpt: as §1

T1 sequence (P10275 whole entry): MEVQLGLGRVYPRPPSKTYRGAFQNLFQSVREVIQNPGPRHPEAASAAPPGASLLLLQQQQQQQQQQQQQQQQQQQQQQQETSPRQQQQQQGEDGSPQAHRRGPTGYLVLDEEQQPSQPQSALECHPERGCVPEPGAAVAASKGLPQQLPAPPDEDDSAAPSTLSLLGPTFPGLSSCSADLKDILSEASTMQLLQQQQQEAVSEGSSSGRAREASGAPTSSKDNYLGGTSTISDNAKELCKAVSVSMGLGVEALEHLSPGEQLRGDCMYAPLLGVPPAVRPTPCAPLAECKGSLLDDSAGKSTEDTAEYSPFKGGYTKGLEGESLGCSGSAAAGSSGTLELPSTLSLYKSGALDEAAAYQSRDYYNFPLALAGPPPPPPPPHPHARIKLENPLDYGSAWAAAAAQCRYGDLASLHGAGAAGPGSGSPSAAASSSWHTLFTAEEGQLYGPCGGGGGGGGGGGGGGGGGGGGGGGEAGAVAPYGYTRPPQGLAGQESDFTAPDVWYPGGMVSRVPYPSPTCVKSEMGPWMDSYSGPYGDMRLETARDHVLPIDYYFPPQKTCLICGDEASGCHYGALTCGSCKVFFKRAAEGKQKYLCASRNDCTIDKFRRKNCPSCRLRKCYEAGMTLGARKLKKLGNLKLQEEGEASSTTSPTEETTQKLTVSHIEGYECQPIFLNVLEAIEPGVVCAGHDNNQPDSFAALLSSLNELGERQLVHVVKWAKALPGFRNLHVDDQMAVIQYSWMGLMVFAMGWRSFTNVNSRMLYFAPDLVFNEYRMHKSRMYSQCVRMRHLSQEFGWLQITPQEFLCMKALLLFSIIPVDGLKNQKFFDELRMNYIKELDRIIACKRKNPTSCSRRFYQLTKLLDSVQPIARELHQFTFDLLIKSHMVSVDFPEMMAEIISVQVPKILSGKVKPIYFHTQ

With `C[C@H](O)C(=O)[C@@]1(C)CC[C@H]2[C@@H]3CCC4=CC(=O)CCC4=C3CC[C@@]21C` [Trimegestone, 17alpha-méthyl-17béta-(2-hydroxy-1-oxo-propyl)-estra-4,9-dièn-3-one (21S)], in experiment [1] (in words), the “affinité vis-à-vis du récepteur androgène” value is given as “très faible affinité”. Besides, in experiment [2], the “activité androgène” value is “dénué”, the “activité antiandrogène” value is given as “présente”, the “activité antiglucocorticoïde” value is “dénué” and the “activité antiminéralocorticoïde” value is reported as “présente”. In addition, in experiment [2], the “activité estrogène” value is “dénué”, the “activité glucocorticoïde” value is on record as “dénué”, the “activité minéralocorticoïde” value was “dénué” and the “activité progestomimétique” value is “puissant progestomimétique”.
Regarding medroxypropgestérone [MPA], the “ARL hGR” value in experiment [3] came to 58. Moreover, the “ARL hAN” value in experiment [1] (relative binding affinity) is 36. For the same compound, the “ARL hPR” value in experiment [4] was 298. Also, the “ARL hER” value in experiment [5] was < 0,02.
